Assays:
[1] = Flux of acyclovir gels with different drug concentrations (saturation flux comparison); type: in vitro ADME; details: in the vehicle of Table 10a
[2] = intravenous administration of 7.5-10 mg three times daily; cited from earlier work

Acyclovir concentration giving a saturated formulation post-evaporation [1]: 0.06 % (w/w)
Compound: Nc1nc2c(ncn2COCCO)c(=O)[nH]1 [acyclovir]
Serum concentrations of acyclovir [2]: 5000 to 10000 ng/mL
